Laboratory results published in patent US9901097B2, “Agricultural and horticultural fungicidal composition” (Nippon Soda Co., Ltd., priority 2011, dated 2018).
Read-outs that look alike come from different tables or passages of the source.

What was measured:
[1] = tested on: cucumber powdery mildew disease pathogens (Sphaerotheca fuliginea); assay: Control test for cucumber powdery mildew disease (sprayed cucumber seedlings); format: in vivo; conditions: held 7 days after inoculation
Description: The drug I and the drug II were dissolved in an organic solvent and a surfactant, and the prepared mixed emulsifiable concentrate was diluted with water to a predetermined concentration, and sprayed to cucumber seedlings that had been cultivated in unglazed pots (cultivar “Sagamihanjiro”, cotyledon stage). Additionally, in Tables, the symbol A indicating the drug I represents a nitrogen-containing heterocyclic compound represented by the formula (A), the symbol B indicating the drug I represents a nitrogen-containing heterocyclic compound represented by the formula (B), and the symbol C indicating the drug I represents a nitrogen-containing heterocyclic compound represented by the formula (C). Further, in Tables, the number indicating the drug II represents each of the compounds described in the numbers described above. Additionally, “-” in Tables represents that the drug was not used.
After air-drying at room temperature, the conidia of cucumber powdery mildew disease pathogens (Sphaerotheca fuliginea) was inoculated by shaking off and held in a warm room for 7 days. By investigation on the state of lesion appearance in leaves with comparison with a non-treatment case, the controlling effect was determined. The test was carried out in duplicate. In addition, the expected value of the controlling effect was calculated based on Colby's equation.
(§1) At the same time, in Comparative Example, in the case of using the drug I only and the case of using the drug II only, the test was carried out by the same method.
(§2) Additionally, the Colby's equation is E=M+N−MN/100. Here, E is the expected value of the controlling effect (%), M is the controlling effect (%) calculated from the measurement with the use of the drug I alone, and N is the controlling effect (%) calculated from the measurement with the use of the drug II alone. Additionally, in Tables, the expected values with the use of the drug alone were the same as the values calculated from the measurement, and were thus not shown.

[2] = tested on: cucumber gray mold disease pathogens (Botrytis cinerea); assay: Control test for cucumber gray mold disease (sprayed cucumber seedlings); format: in vivo; conditions: for pest or weed control at 10 ppm: drug I alone 10 ppm; for pest or weed control at 6.3 ppm: drug II alone 6.3 ppm; for pest or weed control at 100 ppm: drug II alone 100 ppm; for pest or weed control at 400 ppm: drug II alone 400 ppm
Description: The drug I and the drug II were dissolved in an organic solvent and a surfactant, and the prepared mixed emulsifiable concentrate was diluted with water to a predetermined concentration, and sprayed to cucumber seedlings that had been cultivated in unglazed pots (cultivar “Sagamihanjiro” cotyledon stage). Additionally, in Tables, the symbol A indicating the drug I represents a nitrogen-containing heterocyclic compound represented by the formula (A), the symbol B indicating the drug I represents a nitrogen-containing heterocyclic compound represented by the formula (B), and the symbol C indicating the drug I represents a nitrogen-containing heterocyclic compound represented by the formula (C). Further, the number indicating the drug II represents each of the compounds described in the numbers described above. Additionally, “-” in Tables represents that the drug was not used.
After air-drying at room temperature, a suspension of the conidia of cucumber gray mold disease pathogens (Botrytis cinerea) was inoculated by dropwise addition and held in a dark room at 20° C. with a high humidity for 3, 4, or 5 days. By investigation on the state of lesion appearance in leaves with comparison with a non-treatment case, the controlling effect was determined. The test was carried out in duplicate. In addition, the expected value of the controlling effect was calculated based on Colby's equation.
as §1, §2

Botrytis cinerea = assay: Sterilization test (growth inhibition of Botrytis cinerea in potato dextrose medium, 96-well microplate, turbidity 405 nm); format: cell-based; conditions: for inhibition at 0.1 ppm: drug I alone 0.1 ppm; for inhibition at 10 ppm: drug II alone 10 ppm
Description: The solutions thus obtained were mixed to prepare fungicidal compositions.
Conidia of Botrytis cinerea were added to and dispersed in a potato dextrose culture medium. A fungicidal composition was added thereto and mixed. This was dispensed in a 96-well microplate and cultured at 20° C. for 3 days in a dark setting. Then, the turbidity was measured at a wavelength of 405 nm in a microplate reader. From comparison with the measured value of turbidity in the case of non-treatment (without the addition of the fungicidal composition), the growth inhibition rate of Botrytis cinerea (%) was calculated. The test was carried out in duplicate. Further, the expected value of the growth inhibition was calculated based on Colby's equation.
In addition, the Colby's equation is E=M+N−MN/100. Here, E is the expected value of a growth inhibition rate (%), M is the growth inhibition rate (%) calculated from the measurement with the use of the drug I alone, and N is the growth inhibition rate (%) calculated from the measurement with the use of the drug II alone. Additionally, in Tables, the expected values with the use of the drug alone were not shown, because they were the same as the values calculated from the measurement.
At the concentrations shown in Tables 6 to 8, the drug I and the drug II were dissolved separately in dimethyl sulfoxide. The obtained solution was mixed to prepare a fungicidal composition.
Using the same methods as in Example 1 and Comparative Example 1, the sterilization test was carried out. Additionally, in Tables, the expected values with the use of the drug alone were not shown, because they were the same as the values calculated from the measurement.

[3] = Botrytis cinerea, Example 1 (Tables 1-5), read-out: Growth inhibition rate
[4] = Botrytis cinerea, Example 2 (Tables 6-8), read-out: Growth inhibition rate
[5] = Botrytis cinerea, 72 h, read-out: Control effect (%), 3 days after inoculation
[6] = Botrytis cinerea, 96 h, read-out: Control effect (%), 4 days after inoculation
[7] = Botrytis cinerea, 120 h, read-out: Control effect (%), 5 days after inoculation
[8] = Botrytis cinerea, 120 h, read-out: Control effect, Table 10, 5 days after inoculation
[9] = Botrytis cinerea, 96 h, read-out: Control effect, Table 9, 4 days after inoculation
[10] = Botrytis cinerea, 96 h, read-out: Control effect, Table 11, 4 days after inoculation
[11] = Botrytis cinerea, Example 1 (Tables 1-5), drug II alone 0.02 ppm, read-out: Growth inhibition rate
[12] = Botrytis cinerea, 120 h, Table 10, 5 days after inoculation, read-out: Control effect
[13] = Botrytis cinerea, 96 h, 4 days after inoculation, read-out: Control effect (%)
[14] = Botrytis cinerea, 72 h, 3 days after inoculation, read-out: Control effect (%)

In the case of `CCCCc1c(C)nc(NCC)nc1OS(=O)(=O)N(C)C` [Drug 60, Bupirimate], the “Control effect (%)” value ([1]; drug II alone 6.3 ppm) is reported as 10%, the “Control effect (%)” value ([1]; drug II alone 25 ppm) is reported as 50% and the pest or weed control at 25 ppm ([2]; Botrytis cinerea, 72 h, read-out: Control effect (%), 3 days after inoculation, drug II alone 25 ppm) is reported as 0%.

Work on `CCCCCCCCCCCCc1ccc(S(=O)(=O)O)cc1.CCCCCCCCCCCCc1ccc(S(=O)(=O)O)cc1.CCCCCCCCCCCCc1ccc(S(=O)(=O)O)cc1.NC(N)=NCCCCCCCCNCCCCCCCCN=C(N)N` [Drug 5, Iminoctadine albesilate] yielded a Growth inhibition rate (Botrytis cinerea; Example 1 (Tables 1-5), drug II alone 0.02 ppm) of 6%, a Control effect ([2]; Table 10, 5 days after inoculation, drug II alone 0.4 ppm) of 0% and a Control effect ([2]; Table 10, 5 days after inoculation, drug II alone 1.6 ppm) of 0%.

With `CC1(C)CN=C(c2cnc3ccccc3c2)c2cccc(F)c2O1` [A] the inhibition at 0.1 ppm (Botrytis cinerea; [3]) was 19%, the inhibition at 0.1 ppm (Botrytis cinerea; [4]) was 20% and the “Control effect (%)” value ([1]; drug I alone 10 ppm) was 40%. For the same molecule, the pest or weed control at 10 ppm [2, 5] was 52%, the pest or weed control at 10 ppm [2, 6] was 37% and the pest or weed control at 10 ppm [2, 7] was 60%. The pest or weed control at 10 ppm [2, 8] was 43%.

With `Cc1nc2c(F)c(F)ccc2cc1Oc1cccc(F)c1C(C)(C)O` [C] the inhibition at 0.1 ppm (Botrytis cinerea; [3]) was 19%, the inhibition at 0.1 ppm (Botrytis cinerea; [4]) was 21% and the “Control effect (%)” value ([1]; drug I alone 10 ppm) was 30%. It also gave a pest or weed control at 10 ppm [2, 5] of 54%, a pest or weed control at 10 ppm [2, 6] of 19% and a pest or weed control at 10 ppm [2, 9] of 51%. For the same molecule, the pest or weed control at 10 ppm [2, 10] was 76%, the pest or weed control at 10 ppm [2, 7] was 67% and the pest or weed control at 10 ppm [2, 8] was 47%.

Work on `COC(=O)NC(=S)Nc1ccccc1NC(=S)NC(=O)OC` [Drug 3, Thiophanate-methyl] yielded an inhibition at 0.02 ppm (Botrytis cinerea; [11]) of 0%, a pest or weed control at 1.6 ppm ([2]; Botrytis cinerea, 96 h, Table 9, 4 days after inoculation, drug II alone 1.6 ppm, read-out: Control effect) of 3% and a pest or weed control at 6.3 ppm [2, 12] of 89%.

`CCCOC/C(=N\c1ccc(Cl)cc1C(F)(F)F)n1ccnc1` [Drug 2, Triflumizole] gave an inhibition at 2 ppm (Botrytis cinerea; Botrytis cinerea, Example 1 (Tables 1-5), drug II alone 2 ppm, read-out: Growth inhibition rate) of 59%, a pest or weed control at 100 ppm [2, 13] of 1% and a pest or weed control at 400 ppm ([2]; Botrytis cinerea, 96 h, Table 9, 4 days after inoculation, read-out: Control effect) of 64%. The pest or weed control at 100 ppm [2, 12] was 33%.

Work on `C[C@@H]1[C@@H](c2ccc(Cl)cc2)SC(=O)N1C(=O)NC1CCCCC1` [Drug 43, Hexythiazox] yielded an inhibition at 10 ppm (Botrytis cinerea; [4]) of 0%, a pest or weed control at 400 ppm [2, 10] of 2% and a pest or weed control at 100 ppm [2, 7] of 0%. The pest or weed control at 400 ppm [2, 7] was 0%.

`CCc1ccc(C(=O)NN(C(=O)c2cc(C)cc(C)c2)C(C)(C)C)cc1` [Drug 44, Tebufenozide] showed an inhibition at 10 ppm (Botrytis cinerea; [4]) of 0%, a pest or weed control at 400 ppm ([2]; Botrytis cinerea, 96 h, Table 11, 4 days after inoculation, read-out: Control effect) of 22% and a pest or weed control at 400 ppm ([2]; Botrytis cinerea, 120 h, 5 days after inoculation, read-out: Control effect (%)) of 0%.

`COC(=O)NCc1cc(/C(C)=N/OCc2cccc(C)n2)ccc1Cl` [Drug 29, Pyribencarb] showed an inhibition at 0.02 ppm (Botrytis cinerea; [11]) of 22%, a pest or weed control at 0.4 ppm ([2]; Botrytis cinerea, 96 h, 4 days after inoculation, drug II alone 0.4 ppm, read-out: Control effect (%)) of 0% and a pest or weed control at 1.6 ppm ([2]; Botrytis cinerea, 96 h, 4 days after inoculation, drug II alone 1.6 ppm, read-out: Control effect (%)) of 0%. It also gave a pest or weed control at 6.3 ppm [2, 13] of 37%.

In the case of `Cc1nc2c(F)cccc2cc1Oc1cccc(F)c1C(C)(C)O` [B], the inhibition at 0.1 ppm (Botrytis cinerea; [3]) is reported as 19%, the inhibition at 0.1 ppm (Botrytis cinerea; [4]) is reported as 18% and the “Control effect (%)” value ([1]; drug I alone 10 ppm) is reported as 60%. It also gave a pest or weed control at 10 ppm [2, 5] of 54%, a pest or weed control at 10 ppm [2, 6] of 37% and a pest or weed control at 10 ppm [2, 9] of 50%. The pest or weed control at 10 ppm [2, 10] was 78%, the pest or weed control at 10 ppm [2, 7] was 64% and the pest or weed control at 10 ppm [2, 8] was 44%.

In the case of `Cc1cc(C(F)(F)F)nn1CC(=O)N1CCC(c2nc(C3=NOC(c4c(F)cccc4F)C3)cs2)CC1` (stereo not shown) [Drug 61], the “Control effect (%)” value ([1]; drug II alone 6.3 ppm) is reported as 0%, the pest or weed control at 6.3 ppm [2, 14] is reported as 0% and the pest or weed control at 100 ppm [2, 14] is reported as 0%.
